US7271165B2, “Rifamycin analogs and uses thereof” (priority 2003, dated 2007)
Values after ≈ are worked out from the molar mass of the structure shown.

Columns and labels:
[1] = test system: E. faecalis; experiment: MIC assay, E. faecalis; assay type: cell-based, Enterococcus faecalis
[2] = test system: S. aureus; experiment: MIC assay, S. aureus; assay type: cell-based, Staphylococcus aureus
[3] = test system: E coli; experiment: MIC assay, E coli; assay type: cell-based
[4] = test system: H. flu; assay type: cell-based, H. influenza; details: H. flu
[5] = test system: S. pneumo.; experiment: MIC assay, S. pneumo.; assay type: cell-based, Streptococcus pneumoniae

Compound	MIC (μg/mL) E. faecalis [1] [µg/mL]	MIC (μg/mL) S. aureus [2] [µg/mL]	MIC (μg/mL) E coli [3] [µg/mL]	MIC (μg/mL) H. flu [4] [µg/mL]	MIC (μg/mL) S. pneumo. [5] [µg/mL]
CCC1CN(c2cc(O)c3nc4c5c6c7c(C)c(O)c5c(=O)c(c-4oc3c2)NC(=O)C(C)=CC=CC(C)C(O)C(C)C(O)C(C)C(O)C(C)C(OC)C=COC(C)(O7)C6=O)CC(CC)N1 (stereo not drawn) [Compound 88]	0.12 (≈ 0.133 µM)	0.03 (≈ 0.0334 µM)	4 (≈ 4.45 µM)	0.25 (≈ 0.278 µM)	0.0005 (≈ 0.000556 µM)
COC1C=COC2(C)Oc3c(C)c(O)c4c(=O)c(c5oc6cc(N7CCC(NC(=O)N8CCC(NC(=O)SC)CC8)CC7)cc(O)c6nc-5c4c3C2=O)NC(=O)C(C)=CC=CC(C)C(O)C(C)C(O)C(C)C(OC(C)=O)C1C (stereo not drawn) [Compound 49, 3′-hydroxy-5′-[4-(4-(S-methylthiocarbamyl)-1-piperidinylcarbonyl)amino-1-piperidinyl]benzoxazinorifamycin]	8 (≈ 7.28 µM)	0.06 (≈ 0.0546 µM)	>8	2 (≈ 1.82 µM)	0.0005 (≈ 0.000455 µM)
COC1C=COC2(C)Oc3c(C)c(O)c4c(=O)c(c5sc6cc(N7CCC(N(C)C)CC7)ccc6nc-5c4c3C2=O)NC(=O)C(C)=CC=CC(C)C(O)C(C)C(O)C(C)C(OC(C)=O)C1C (stereo not drawn) [Compound 69, 5′-[4-N,N-dimethylamino-1-piperidinyl]benzthiazinorifamycin]	0.5 (≈ 0.539 µM)	0.015 (≈ 0.0162 µM)	4 (≈ 4.31 µM)	0.5 (≈ 0.539 µM)	0.00025 (≈ 0.00027 µM)
25-O-deacetyl-5′-[(8aR)octahydropyrrolo[1,2-a]pyrazin-2-yl]benzthiazinorifamycin [Compound 78]	0.12	0.002	4	0.12	0.00012
CCCS(=O)(=O)NC1CCN(c2cc(O)c3nc4c5c6c7c(C)c(O)c5c(=O)c(c-4oc3c2)NC(=O)C(C)=CC=CC(C)C(O)C(C)C(O)C(C)C(OC(C)=O)C(C)C(OC)C=COC(C)(O7)C6=O)CC1 (stereo not drawn) [Compound 35]	4 (≈ 3.98 µM)	0.015 (≈ 0.0149 µM)	8 (≈ 7.96 µM)	0.5 (≈ 0.497 µM)	0.00025 (≈ 0.000249 µM)
CO[C@H]1/C=C/O[C@@]2(C)Oc3c(C)c(O)c4c(=O)c(c5oc6cc(N7CCC(NS(C)(=O)=O)CC7)cc(O)c6nc-5c4c3C2=O)NC(=O)/C(C)=C\C=C\[C@H](C)[C@H](O)[C@@H](C)[C@@H](O)[C@@H](C)[C@H](OC(C)=O)[C@@H]1C [Compound 25]	2 (≈ 2.05 µM)	0.008 (≈ 0.00819 µM)	>8	2 (≈ 2.05 µM)	0.001 (≈ 0.00102 µM)
CCOc1c(N2CCN(CC3CC3)CC2)ccc2nc3c4c5c6c(C)c(O)c4c(=O)c(c-3oc12)NC(=O)/C(C)=C\C=C\[C@H](C)[C@H](O)[C@@H](C)[C@@H](O)[C@@H](C)[C@H](O)[C@H](C)[C@@H](OC)/C=C/O[C@@](C)(O6)C5=O [Compound 105]	0.5 (≈ 0.54 µM)	0.03 (≈ 0.0324 µM)	>8	1 (≈ 1.08 µM)	0.015 (≈ 0.0162 µM)
COC1C=COC2(C)Oc3c(C)c(O)c4c(=O)c(c5oc6cc(N7CCN(C)CC7)cc(O)c6nc-5c4c3C2=O)NC(=O)C(C)=CC=CC(C)C(O)C(C)C(O)C(C)C(O)C1C (stereo not drawn) [Compound 82]	0.015 (≈ 0.0175 µM)	0.002 (≈ 0.00233 µM)	4 (≈ 4.67 µM)	0.25 (≈ 0.292 µM)	0.00012 (≈ 0.00014 µM)
COC1C=COC2(C)Oc3c(C)c(O)c4c(=O)c(c5oc6cc(N7CCC(C)(N(C)C)CC7)cc(O)c6nc-5c4c3C2=O)NC(=O)C(C)=CC=CC(C)C(O)C(C)C(O)C(C)C(O)C1C (stereo not drawn) [Compound 73, 25-O-deacetyl-3′-hydroxy-5′-[4-methyl-4-N,N-dimethylamino-1-piperidinyl]benzoxazinorifamycin]	0.03 (≈ 0.0334 µM)	0.002 (≈ 0.00222 µM)	2 (≈ 2.22 µM)	0.12 (≈ 0.133 µM)	0.00025 (≈ 0.000278 µM)
